Results from PMC8041823, “Structural comparison of Acinetobacter baumannii β-ketoacyl-acyl carrier protein reductases in fatty acid and aryl polyene biosynthesis” (Scientific Reports, 2021).

Biological target: T1, AbApeQ (Acinetobacter baumannii, UniProt Z9NHK5QJZ4)
T1 construct: full-length, pET28a, N-terminal His-tag removed with thrombin, expressed in E. coli BL21 (DE3)
Experiment: X-ray crystallography (co-crystallization)
Type: binding
Conditions: 1:3 molar ratio of NADPH; 0.2 M potassium sodium tartrate, 20% PEG 3350; active site; NADPH density in two of four molecules

NC(=O)C1=CN([C@@H]2O[C@H](COP(=O)(O)OP(=O)(O)OC[C@H]3O[C@@H](n4cnc5c(N)ncnc54)[C@H](OP(=O)(O)O)[C@@H]3O)[C@@H](O)[C@H]2O)C=CC1 [NADPH]
X-ray crystallography (co-crystallization): We obtained the structure of the AbApeQ–NADPH complex by co-crystallization of AbApeQ and NADPH.
